Measured values: patent US12552753B2, “Methods and compositions for targeting Tregs using CCR8 inhibitors” (Nanjing Immunophage Biomedical Co., Ltd., priority 2020, dated 2026)
Like-named read-outs stand apart in the source and are kept apart here.

Target: CCR8 (Homo sapiens, UniProt P51685)
Test: Tango assay (Tango-CCR8-Gal4-CHO-K1 cells, CCL1-stimulated, ONE-Glo luminescence)

Sequence of CCR8 (P51685 whole entry, the tested form may be a part): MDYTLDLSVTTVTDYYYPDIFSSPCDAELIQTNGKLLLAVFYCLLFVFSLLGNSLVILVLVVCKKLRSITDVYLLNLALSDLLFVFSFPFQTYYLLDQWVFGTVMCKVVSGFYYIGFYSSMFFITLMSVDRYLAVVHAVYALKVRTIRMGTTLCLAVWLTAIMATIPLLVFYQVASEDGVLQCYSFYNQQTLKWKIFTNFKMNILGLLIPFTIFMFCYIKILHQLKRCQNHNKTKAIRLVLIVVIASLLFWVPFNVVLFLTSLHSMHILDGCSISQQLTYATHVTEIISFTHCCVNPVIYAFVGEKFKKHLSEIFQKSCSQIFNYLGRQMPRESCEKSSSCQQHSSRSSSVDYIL

| IC50 (Tango Assay IC50, Inhibition of CCR8 Tango cell in vitro) | IC50 (read-out: Tango Assay IC50, Inhibition of CCR8 Tango cell in vitro) | Compound |
| --- | --- | --- |
| > 10000 nM | – | Cc1ccccc1C(=O)Nc1ccc(S(=O)(=O)NC(C)C2CCCN(C(=O)CNC(=O)OC(C)(C)C)C2)c2ccccc12 (single isomer, unassigned) [Compound 155B, tert-butyl (2-(3-(1-(4-(2-methylbenzamido)naph-thalene-1-sulfonamido)ethyl)piper-idin-1-yl)-2-oxoethyl)carbamate] |
| – | 46 nM | COC1CCC([C@@H](C)NS(=O)(=O)c2ccc(NC(=O)c3ccccc3C)c(C)c2)CC1 (single isomer, unassigned) [Compound 293B, N-(4-(N-(1-(4-methoxycyclohexyl)ethyl)sulfamoyl)-2-methylphenyl)-2-methylbenzamide] |
